The values below come from patent publication US20240246992A1, “MACROCYCLIC LRRK2 KINASE INHIBITORS” (LES LABORATOIRES SERVIER, priority 2021, published 2024).

As a reminder, the IC50 is the concentration that inhibits the measured activity by half.

In the experiment the target is human recombinant LRRK2 protein (Homo sapiens, UniProt Q5S007). The experiment in a line: LRRK2 kinase activity assay (ADP-Glo, LRRKtide peptide). Particulars: human recombinant LRRK2 wt, LRRKtide peptide and ATP, 1 h at 37° C. Format: biochemical. The method, then: The inhibition of LRRK2 kinase was assessed using human recombinant LRRK2 protein in an in vitro peptide-based kinase assay.
Sequence of human recombinant LRRK2 protein (Q5S007 whole entry): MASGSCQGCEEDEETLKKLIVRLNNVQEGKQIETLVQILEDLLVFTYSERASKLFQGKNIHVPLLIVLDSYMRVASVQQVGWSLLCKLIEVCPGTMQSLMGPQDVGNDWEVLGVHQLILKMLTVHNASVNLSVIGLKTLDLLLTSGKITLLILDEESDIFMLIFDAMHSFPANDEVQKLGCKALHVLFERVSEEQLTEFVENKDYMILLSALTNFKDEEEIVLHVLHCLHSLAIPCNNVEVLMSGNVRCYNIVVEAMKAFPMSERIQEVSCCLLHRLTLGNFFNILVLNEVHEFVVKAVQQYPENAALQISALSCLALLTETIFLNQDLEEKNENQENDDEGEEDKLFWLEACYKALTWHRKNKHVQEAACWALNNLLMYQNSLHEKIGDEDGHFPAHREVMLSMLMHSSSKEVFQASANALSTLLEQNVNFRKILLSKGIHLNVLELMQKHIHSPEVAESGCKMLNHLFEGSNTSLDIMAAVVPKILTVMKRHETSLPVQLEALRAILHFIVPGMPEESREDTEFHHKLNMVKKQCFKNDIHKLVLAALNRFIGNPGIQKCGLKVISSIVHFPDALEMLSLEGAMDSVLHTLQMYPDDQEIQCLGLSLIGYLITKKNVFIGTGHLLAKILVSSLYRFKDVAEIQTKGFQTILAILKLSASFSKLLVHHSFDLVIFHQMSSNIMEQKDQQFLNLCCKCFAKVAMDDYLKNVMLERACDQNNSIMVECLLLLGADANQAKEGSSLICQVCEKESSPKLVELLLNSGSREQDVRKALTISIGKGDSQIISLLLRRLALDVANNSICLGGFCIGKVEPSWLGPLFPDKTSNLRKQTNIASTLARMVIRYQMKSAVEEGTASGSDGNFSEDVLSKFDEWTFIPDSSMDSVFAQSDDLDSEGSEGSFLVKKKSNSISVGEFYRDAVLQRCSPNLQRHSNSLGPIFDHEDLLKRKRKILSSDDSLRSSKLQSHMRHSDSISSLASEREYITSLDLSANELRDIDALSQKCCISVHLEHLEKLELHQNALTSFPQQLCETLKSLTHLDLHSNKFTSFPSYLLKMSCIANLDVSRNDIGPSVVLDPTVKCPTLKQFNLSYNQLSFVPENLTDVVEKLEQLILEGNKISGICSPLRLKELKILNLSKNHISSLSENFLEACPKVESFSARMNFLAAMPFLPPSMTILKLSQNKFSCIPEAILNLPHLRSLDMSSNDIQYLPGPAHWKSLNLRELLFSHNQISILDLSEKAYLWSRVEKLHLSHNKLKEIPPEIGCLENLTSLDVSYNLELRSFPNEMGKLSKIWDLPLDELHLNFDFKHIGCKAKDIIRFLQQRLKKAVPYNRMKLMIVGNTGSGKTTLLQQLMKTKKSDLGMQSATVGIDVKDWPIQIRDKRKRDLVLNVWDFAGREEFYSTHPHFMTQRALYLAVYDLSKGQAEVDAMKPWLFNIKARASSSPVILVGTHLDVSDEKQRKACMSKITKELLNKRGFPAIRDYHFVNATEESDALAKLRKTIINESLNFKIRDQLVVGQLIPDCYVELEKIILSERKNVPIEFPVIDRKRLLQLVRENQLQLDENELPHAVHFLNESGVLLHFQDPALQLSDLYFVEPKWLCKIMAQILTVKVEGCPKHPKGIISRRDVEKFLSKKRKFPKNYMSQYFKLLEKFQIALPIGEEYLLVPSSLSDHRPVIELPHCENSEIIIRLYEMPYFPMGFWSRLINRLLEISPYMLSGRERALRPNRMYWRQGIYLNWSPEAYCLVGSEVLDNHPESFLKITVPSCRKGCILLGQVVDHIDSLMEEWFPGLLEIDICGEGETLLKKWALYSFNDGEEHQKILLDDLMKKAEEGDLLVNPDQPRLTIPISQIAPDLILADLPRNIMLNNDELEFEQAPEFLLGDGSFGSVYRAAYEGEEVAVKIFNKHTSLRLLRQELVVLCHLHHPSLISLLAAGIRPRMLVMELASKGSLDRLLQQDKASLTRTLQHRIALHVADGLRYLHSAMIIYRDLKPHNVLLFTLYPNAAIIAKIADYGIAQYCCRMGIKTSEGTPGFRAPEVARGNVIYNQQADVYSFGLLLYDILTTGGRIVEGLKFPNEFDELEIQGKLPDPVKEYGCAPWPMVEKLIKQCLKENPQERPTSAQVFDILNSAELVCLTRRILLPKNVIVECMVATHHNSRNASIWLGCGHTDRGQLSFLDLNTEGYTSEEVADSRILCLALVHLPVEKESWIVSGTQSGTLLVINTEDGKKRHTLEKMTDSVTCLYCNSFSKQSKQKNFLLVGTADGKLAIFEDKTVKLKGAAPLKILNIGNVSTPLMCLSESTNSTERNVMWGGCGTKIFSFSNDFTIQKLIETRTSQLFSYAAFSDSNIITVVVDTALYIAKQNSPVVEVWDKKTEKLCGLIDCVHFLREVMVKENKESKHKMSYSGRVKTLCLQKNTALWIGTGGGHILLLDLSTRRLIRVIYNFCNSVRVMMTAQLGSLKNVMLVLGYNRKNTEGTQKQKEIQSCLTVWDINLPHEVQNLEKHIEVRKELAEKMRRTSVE
LRRK2 Kinase reactions were carried out in 384-well white polystyrene plates in a final volume of 6 μl using ADP-Glo™ Kinase Assay kit (Promega Corp.). Compound and substrates (LRRKtide peptide and ATP) in assay buffer were first dispensed in wells. Kinase reaction was then started by the addition of human recombinant LRRK2 protein. After 1 h-incubation at 37° C., the enzymatic reactions was stopped by the addition of 6 μl of ADP-Glo Reagent-1 and an additional 40-minutes incubation at 23° C. (residual ATP depletion). A final 30-minutes incubation after 12 μL reagent-2 addition (ADP to ATP conversion and luciferin/luciferase reaction) was performed before luminescent signal acquisition (EnVision™ multimode plate reader—PerkinElmer, Inc.). Data from 10 individual concentrations of tested compounds (N=2) were fitted (XLfit™—ID Business Solutions Ltd) to deliver IC50s (compound concentration leading to 50% inhibition of reference enzymatic activity).
The compounds are dissolved to 5 mM in DMSO. When needed, solutions are sonicated in a bath sonicator.
Table 2 provides the pIC50 values of the compounds according to the invention, obtained using the above mentioned kinase assay. Activities are represented as +++, ++ and +, having the following meanings: • «+++» means an IC50<10 nM • «++» means an IC50<100 nM • «+» means an IC50<1 μM • «−» means an IC50>1 μM
In general terms: In ADP-Glo the light output rises with the ADP produced.
As for `CC1(C)Oc2cncc(c2)-c2n[nH]c3ccc(cc23)OCCCNC1=O` [Example 201, 8,8-dimethyl-7,14-dioxa-4,10,19,20-tetraazatetracyclo [13.5.2.1^2,6.0^18,21]tricosa-1(20),2(23),3,5,15,17,21-heptaen-9-one], the IC50 was less than 10 nM.

Regarding `CN1CCCOc2ccc3[nH]nc(c3c2)-c2cc(cnc2F)OCC1=O` [Example 200, 3-fluoro-10-methyl-7,14-dioxa-4,10,19,20-tetraazatetracyclo[13.5.2.1^2,6.0^18,21]tricosa-1(20),2,4,6(23),15(22),16,18(21)-heptaen-9-one], the half-maximal inhibitory concentration (IC50) is less than 1000 nM.

On to `C[C@H]1COCCOc2ccc3[nH]nc(c3c2)-c2cnn(c2)CCO1` [Example 61, (9S)-9-methyl-8,11,14-trioxa-4,5,19,20-tetraazatetracyclo[13.5.2.1^2,5.0^18,21] tricosa-1(20),2(23),3,15(22),16,18(21)-hexaene], for which the half-inhibitory concentration (IC50) was less than 100 nM.

For `C[C@H]1CCOC[C@H](C)Oc2cncc(n2)-c2n[nH]c3ccc(cc23)O1` [Example 47, (8S,13S)-8,13-dimethyl-7,10,14-trioxa-4,19,20,23-tetraazatetracyclo[13.5.2.1^2,6.0^18,21]tricosa-1(20),2(23),3,5,15(22),16,18(21)-heptaene], the IC50 was less than 100 nM.

Regarding `C[C@H]1COCCCOc2nccc(n2)-c2n[nH]c3ccc(cc23)O1` [Example 26, (13S)-13-methyl-7,11,14-trioxa-5,19,20,23-tetraazatetracyclo[13.5.2.1^2,6.0^18,21]tricosa-1(20),2(23),3,5,15(22),16,18(21)-heptaene], the IC50 is less than 10 nM.

In the case of `C[C@@H]1CCOC[C@H](C)Oc2ccc3[nH]nc(c3c2)-c2ccnc(n2)O1` [Example 53, (8R,13S)-8,13-dimethyl-7,11,14-trioxa-5,19,20,23-tetraazatetracyclo[13.5.2.1^2,6.0^18,21]tricosa-1(20),2(23),3,5,15(22),16,18(21)-heptaene], the IC50 is less than 10 nM.

As for `COCC1CCOc2ccc3[nH]nc(c3c2)-c2cccc(c2)OCC(=O)N1` (single isomer, unassigned) [Example 150, (11S) or (11R)-11-(methoxymethyl)-7,14-dioxa-10,19,20-triazatetracyclo[13.5.2.1^2,6.0^18,21]tricosa-1(20),2(23),3,5,15,17,21-heptaen-9-one], the IC50 is less than 100 nM.

For the molecule `COC1CNC(=O)COc2cccc(c2)-c2n[nH]c3ccc(cc23)OC1` (stereo not drawn) [Example 170, 12-methoxy-7,14-dioxa-10,19,20-triazatetracyclo[13.5.2.1^2,6.0^18,21]tricosa-1(20),2(23),3,5,15,17,21-heptaen-9-one], the IC50 was less than 100 nM.

Turning to `COC1COCCOC[C@@H](C)Oc2ccc3[nH]nc(c3c2)-c2cnn1c2` (stereo partly drawn) [Example 95, (13R)-6-methoxy-13-methyl-8,11,14-trioxa-4,5,19,20-tetraazatetracyclo [13.5.2.1^2,5.0^18,21]tricosa-1(20),2(23),3,15(22),16,18(21)-hexaene], the IC50 was less than 100 nM.

Regarding `C[C@@H]1CCOCCOCCn2cc(cn2)-c2n[nH]c3ccc(cc23)O1` [Example 131, (14R)-14-methyl-8,11,15-trioxa-4,5,20,21-tetraazatetracyclo[14.5.2.1^2,5.0^19,22]tetracosa-1(21),2(24),3,16(23),17,19(22)-hexaene], the IC50 was less than 10 nM.

For the molecule `C[C@@H]1CCOC[C@H](C)Oc2cncc(c2)-c2n[nH]c3ccc(cc23)O1` [Example 22, (8S,13R)-8,13-dimethyl-7,10,14-trioxa-4,19,20-triazatetracyclo[13.5.2.1^2,6.0^18,21]tricosa-1(20),2(23),3,5,15(22),16,18(21)-heptaene], the IC50 is less than 10 nM.

With `CC1CN(C)CCCOc2ccc3[nH]nc(c3c2)-c2cncc(c2)O1` (stereo not drawn) [Example 161, 8,10-dimethyl-7,14-dioxa-4,10,19,20-tetraazatetracyclo [13.5.2.1^2,6.0^18,21]tricosa-1(20),2,4,6(23),15,17,21-heptaene], the IC50 was less than 100 nM.
